Measured values reported in ChEMBL document CHEMBL1201862, “PubChem BioAssay data set” (2004).
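Each compound was tested at five concentrations against cells in 96-well plates for 48 hours. GI50 = concentration required for 50% inhibition of growth.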 The source made the active and inactive calls. Rule as the data show it: active = GI50 up to about 1.1 µM and inactive = higher.

Legend:
Assay in all cases: inhibition of tumour cell growth, NCI panel, 48 h
BT-549 = tested on: BT-549
SK-OV-3 = tested on: SK-OV-3
U-251 = tested on: U-251
RXF 393 = tested on: RXF 393
MDA-MB-231 = tested on: MDA-MB-231
NCI/ADR-RES = tested on: NCI/ADR-RES
UACC-62 = tested on: UACC-62
LOX IMVI = tested on: LOX IMVI
HOP-92 = tested on: HOP-92
HCC 2998 = tested on: HCC 2998
COLO 205 = tested on: COLO 205
OVCAR-5 = tested on: OVCAR-5
SNB-75 = tested on: SNB-75
TK-10 = tested on: TK-10
SK-MEL-2 = tested on: SK-MEL-2
A549 = tested on: A549
M14 = tested on: M14
SF-539 = tested on: SF-539
NCI-H226 = tested on: NCI-H226
SF-295 = tested on: SF-295

Measured: GI50

N/N=C1\C(OC(=O)Nc2ccccc2)=Nc2ccccc21
inactive: BT-549 11.7 µM | SK-OV-3 19.8 µM | U-251 16 µM | RXF 393 15.4 µM | MDA-MB-231 18.6 µM | NCI/ADR-RES 30.3 µM | UACC-62 14.8 µM | LOX IMVI 14.5 µM | HOP-92 15.2 µM | HCC 2998 15.3 µM | COLO 205 17.3 µM | OVCAR-5 45.1 µM | SNB-75 22.8 µM | TK-10 23 µM | SK-MEL-2 19.7 µM | A549 17 µM | M14 13.4 µM | SF-539 15.6 µM | NCI-H226 16.8 µM | SF-295 14 µM

N#CC(C#N)=Cc1c(O)ccc2ccccc12
inactive: BT-549 16.7 µM | SK-OV-3 15.8 µM | U-251 15.9 µM | RXF 393 15.2 µM | MDA-MB-231 13.2 µM | NCI/ADR-RES 17.3 µM | UACC-62 12.9 µM | LOX IMVI 12.1 µM | HCC 2998 16 µM | COLO 205 15.2 µM | OVCAR-5 17 µM | SNB-75 3.3 µM | TK-10 18.1 µM | SK-MEL-2 13.7 µM | A549 17.1 µM | M14 13.8 µM | SF-539 10.6 µM | NCI-H226 21.3 µM | SF-295 15 µM
active: HOP-92 0.422 µM

COc1cc(Cn2c(=S)ss/c2=N\C(=S)N(C)C)cc(OC)c1OC
inactive: BT-549 > 20.7 µM | SK-OV-3 13.4 µM | U-251 4.61 µM | RXF 393 2.79 µM | MDA-MB-231 15.1 µM | NCI/ADR-RES 1.61 µM | UACC-62 2.85 µM | LOX IMVI 4.69 µM | HOP-92 17.9 µM | HCC 2998 49.1 µM | COLO 205 9.33 µM | OVCAR-5 > 68.9 µM | SNB-75 3.77 µM | TK-10 34.8 µM | SK-MEL-2 4.46 µM | A549 13.2 µM | M14 4.73 µM | SF-539 6.35 µM | NCI-H226 24.3 µM | SF-295 3.44 µM

O=CCCCCCOCc1ccccc1
inactive: BT-549 > 100 µM | SK-OV-3 > 100 µM | U-251 69.5 µM | RXF 393 > 100 µM | MDA-MB-231 > 87.1 µM | NCI/ADR-RES > 55.8 µM | UACC-62 > 58.1 µM | LOX IMVI 18.3 µM | HOP-92 > 100 µM | HCC 2998 > 100 µM | COLO 205 > 100 µM | OVCAR-5 > 100 µM | SNB-75 > 78.2 µM | TK-10 99.5 µM | SK-MEL-2 > 100 µM | A549 43.6 µM | M14 > 100 µM | SF-539 > 100 µM | NCI-H226 > 73.6 µM | SF-295 30.6 µM

COc1cccc2c1C(=O)C(=O)c1c-2oc(=O)c2cc(C)cc(OC)c12
inactive: BT-549 13.5 µM | SK-OV-3 58.5 µM | U-251 12.8 µM | RXF 393 19.1 µM | MDA-MB-231 21.3 µM | NCI/ADR-RES 15.8 µM | UACC-62 31 µM | LOX IMVI 13.6 µM | HOP-92 59.2 µM | HCC 2998 14.5 µM | COLO 205 67 µM | OVCAR-5 > 75 µM | SNB-75 22.6 µM | TK-10 > 75 µM | SK-MEL-2 16 µM | A549 > 75 µM | M14 25.3 µM | SF-539 63 µM | NCI-H226 72.8 µM | SF-295 45.3 µM

COC1/C=C\OC2(C)Oc3c(C)c(O)c4c(O)c(c(CN(C)C)c(O)c4c3C2=O)NC(=O)/C(C)=C\C=C/C(C)C(O)C(C)C(O)C(C)C(OC(C)=O)C1C (stereo not given)
inactive: BT-549 31.2 µM | SK-OV-3 > 100 µM | U-251 19.7 µM | RXF 393 37.8 µM | MDA-MB-231 28.8 µM | NCI/ADR-RES > 100 µM | UACC-62 18.3 µM | LOX IMVI 17.6 µM | HOP-92 45 µM | HCC 2998 20.5 µM | COLO 205 17.5 µM | OVCAR-5 > 100 µM | SNB-75 39.3 µM | TK-10 35.3 µM | SK-MEL-2 18.7 µM | A549 27.4 µM | M14 19.4 µM | SF-539 17.5 µM | NCI-H226 > 100 µM | SF-295 > 100 µM

O=C(Nc1sccc1S(=O)(=O)c1ccc(Cl)cc1)c1ccc(F)cc1F
inactive: BT-549 20.8 µM | SK-OV-3 21.9 µM | U-251 19.2 µM | RXF 393 21.7 µM | MDA-MB-231 20.7 µM | NCI/ADR-RES 32.3 µM | UACC-62 25.8 µM | LOX IMVI > 100 µM | HOP-92 19.5 µM | HCC 2998 > 100 µM | COLO 205 > 100 µM | OVCAR-5 27.8 µM | SNB-75 19.3 µM | TK-10 20.9 µM | SK-MEL-2 18.9 µM | A549 48.2 µM | M14 > 100 µM | SF-539 14.3 µM | NCI-H226 26.7 µM | SF-295 23.3 µM

CC1(C)C(=O)C2(C#N)CCC1C2 (stereo not given)
inactive: BT-549 > 100 µM | SK-OV-3 > 100 µM | U-251 > 100 µM | RXF 393 > 100 µM | MDA-MB-231 > 100 µM | NCI/ADR-RES > 100 µM | UACC-62 > 100 µM | LOX IMVI > 100 µM | HOP-92 > 100 µM | HCC 2998 > 100 µM | COLO 205 > 100 µM | OVCAR-5 > 100 µM | SNB-75 > 84.7 µM | TK-10 > 100 µM | SK-MEL-2 > 100 µM | A549 > 100 µM | M14 > 100 µM | SF-539 > 100 µM | NCI-H226 > 100 µM | SF-295 > 100 µM

COc1cc2c(cc1OC)C(Cl)C(c1ccc(Br)cc1)=C2Cl (stereo not given)
inactive: BT-549 2.31 µM | SK-OV-3 16.1 µM | U-251 10.2 µM | RXF 393 11.2 µM | MDA-MB-231 9.64 µM | NCI/ADR-RES 10.9 µM | UACC-62 11.2 µM | LOX IMVI 9.48 µM | HOP-92 12.1 µM | HCC 2998 13.3 µM | COLO 205 14.4 µM | OVCAR-5 15.4 µM | SNB-75 13.3 µM | TK-10 11.4 µM | SK-MEL-2 9.08 µM | A549 14.1 µM | M14 11.2 µM | SF-539 12.4 µM | NCI-H226 11.3 µM | SF-295 14.9 µM

Cc1cc(Cl)ccc1OCC(=O)Oc1c(Cl)c(Cl)c(Cl)c(Cl)c1Cl
inactive: BT-549 35.9 µM | SK-OV-3 27.9 µM | U-251 24.4 µM | RXF 393 18.7 µM | MDA-MB-231 18 µM | NCI/ADR-RES 25.4 µM | UACC-62 19 µM | LOX IMVI 22.5 µM | HOP-92 17.3 µM | HCC 2998 25.2 µM | COLO 205 27.8 µM | OVCAR-5 24.4 µM | SNB-75 26.6 µM | TK-10 30.3 µM | SK-MEL-2 24.2 µM | A549 25.6 µM | M14 26.6 µM | SF-539 38.7 µM | NCI-H226 20.2 µM | SF-295 24.1 µM
